Assay results published in US12383534B2, “Methods for treating cancer” (REGENTS OF THE UNIVERSITY OF MINNESOTA, priority 2021, dated 2025).

How the values were obtained:
NCC-CDS-X1 cells = assay: Immunofluorescence for Ki-67 in NCC-CDS-X1 cells; type: cell-based, human; details: NCC-CDS-X1, 24 hours, 0.3 μM
Protocol: (§1) For western blot analyses, cells were lysed with RIPA buffer supplemented with protease inhibitor cocktail (Complete, Roche), and proteins were separated on 10% SDS-PAGE gels, then transferred to PVDF membranes. Antibodies were diluted in 5% skim milk in TBST and incubated overnight at 4° C. or 1 hour at RT. An appropriate secondary HRP conjugated antibody was incubated for 1 hour at RT. Membranes were then washed with TBST, and signal was visualized using Pierce ECL western blotting substrate (Thermo Scientific). For immunofluorescence, cells cultured in 96 well plates were fixed in 4% PFA for 10 min., washed twice with PBS, permeabilized with 0.3% Triton X for 30 min, and blocked with 3% BSA for 1 hour at R/T. Primary antibodies were diluted in 3% BSA and incubated o/n at 4° C. An appropriate conjugated secondary antibody was applied for 60 min at RT. Nuclei were visualized using DAPI (1:5000, Sigma). […]

[1] = test system: CIC-DUX4 target genes like ETV4 and CCNE1 in ES cell lines (AF573, TC71, A673); assay: RT-qPCR for CIC-DUX4 target genes in Ewing sarcoma cell lines; type: cell-based; details: 0.03 μM, 18 hours
Protocol: (§2) RNA was extracted using an RNA extraction kit (Zymo) and cDNA was made using 0.5 μg total RNA with oligo-dT primer and Verso cDNA Synthesis Kit (Thermo Scientific) following the manufacturer's instructions. qPCRs were performed by using Premix Ex Taq (Probe qPCR, Takara) or SYBR-green. Gene expression levels were normalized to that of GAPDH and analyzed with 7500 System Software using the ACT method (Applied Biosystems). RNA-seq library preparation was done with 500 ng total RNA from NCC-CDS-X1 cells treated for 4 or 24 hours with iP300w (0.3 μM) using the Swift Rapid RNA Library Kit (SwiftBioscience). 36 base paired-end sequencing was performed on an Illumina NextSeq instrument at the University of Minnesota Genomics Center.
To determine whether iP300w was particularly active against CDS cells, vis-à-vis other related cancer cell lines, viability of 3 different Ewing sarcoma (ES) cell lines and several different immortalized cell lines treated with iP300w were compared. […] Furthermore, gene expression analyses confirmed the specificity of iP300w to CDS.

[2] = test system: CIC-DUX4 induced transcriptome in NCC-CDS-X1 cells; assay: RNA-seq transcriptional profile of NCC-CDS-X1 cells; type: cell-based, human; details: for number of genes changed by more than 10-fold / number of down-regulated genes (2-fold or greater) / number of up-regulated genes (2-fold or greater): 0.3 μM
Protocol: as §2
Paired-end Illumina sequencing reads were trimmed with TrimGalore (0.6.0) and transcript abundance was quantified using the human Gencode annotations (v34) using Salmon (v 1.2.1) with the GC-bias correction option. Counts were imported into R (v 4.0.2) using tximeta (v 1.6.3). Differentially expressed genes were identified with DESeq2 (v 1.28.1) and figures were made with the ComplexHeatmap (v 2.4.3), clusterProfiler (v 3.16.1) and ggplot2 (v 3.3.2) R packages. Sequencing reads and processed data have been deposited into GEO under the accession number GSE165729.
Next, global transcriptional profiles of NCC-CDS-X1 cells treated with iP300w were investigated. […] Among these differentially expressed genes, 170 and 244 were changed by more than 10-fold at 4 hour and 24 hours, respectively (FIG. 3A).

[3] = test system: global H3K18 and H3K27 acetylation; assay: Western blot for H3 acetylation markers in NCC-CDS-X1 cells; type: cell-based, human; details: NCC-CDS-X1, 18 hours
Protocol: as §1

DUX4 = details: cited from earlier work

For CNC(=O)Cn1cc(-c2ccc3c(c2)[C@H](F)C[C@]32NC(=O)N(CC(=O)N(Cc3ccc(F)cc3)[C@@H](C)C(F)(F)F)C2=O)cn1 (single isomer, unassigned) [iP300w], the Ki-67 positive staining (NCC-CDS-X1 cells) was “almost complete absence of Ki-67 positive staining”, the “effect on basal expression of CIC-DUX4 target genes and cell cycle-related genes” value [1] was “did not affect the basal expression” and the “number of genes changed by more than 10-fold” value ([2]; 4 hour) was 170 genes. For the same molecule, the “number of down-regulated genes (2-fold or greater)” value ([2]; 4 hours post-treatment) was 1182 genes, the “number of up-regulated genes (2-fold or greater)” value ([2]; 4 hours post-treatment) was 872 genes and the “number of genes changed by more than 10-fold” value ([2]; 24 hours) was 244 genes. For the same molecule, the “number of down-regulated genes (2-fold or greater)” value ([2]; 24 hours post-treatment) was 2042 genes, the “number of up-regulated genes (2-fold or greater)” value ([2]; 24 hours post-treatment) was 1658 genes and the “effect on p21 (CDKN1A) expression” value ([2]; 24 hours) was “upregulated in the 24 hours”. The “effect on key transformation-regulatory genes ETV1, ETV4 and CCNE1” value ([2]; set of 165 CIC-DUX4 targets, 4 hours) was “significantly downregulated within 4 hours”, the “effect on CIC-DUX4 targets” value ([2]; set of 165 CIC-DUX4 targets, 24 hours) was “vast majority of CIC-DUX4 targets to be downregulated” and the “effect on global H3K18 and H3K27 acetylation” value [3] was “reduces global H3K18 and H3K27 acetylation”. The “effect on cell death caused by full length DUX4” value (DUX4) was “cell death was prevented” and the “effect on gene expression changes caused by DUX4” value (DUX4) was “ability to reverse gene expression changes caused by DUX4”.
